Source: PubChem BioAssay AID1963982 (Molecular Pharmacology Branch, DTP, NCI, 2024)

System: 313798-341-R-J2-PDC spheroids, viability
Experiment: Anticancer human tumor 313798-341-R-J2-PDC patient-derived cervical squamous cell carcinoma cell line growth inhibition [PI3K]
Details: spheroids with HUVEC and MSC; for IC50: curve of first compound; for viability, T/C: stronger effect = lower value
From the text: Combinatorial screen of targeted agents with the PI3K inhibitors inavolisib, alpelisib, duvelisib, and copanlisib in multi-cell type tumor spheroids
A high-throughput screen of multi-cell type tumor spheroids was designed to identify active combinations of targeted small molecules and PI3K pathway inhibitors. Complex spheroids include a stromal component modeled by human endothelial cells (HUVEC) and fibroblasts modeled by human mesenchymal stem cells (MSCs). The concentration ranges selected for each drug and investigational agent were based upon clinically achievable concentrations if the clinical Cmax of the agent was known.
Compounds. The drugs and investigational agents: inavolisib (NSC800729), alpelisib (NSC765974), duvelisib (NSC772469), copanlisib (NSC816437), ipatasertib (NSC767898), afuresertib (NSC778305), talazoparib (NSC767125), sapanisertib (NSC764658), selumetinib (NSC741078), tovorafenib (DAY101, NSC766906), vemurafenib (NSC761431), ravoxertinib (NSC781343), sotorasib (NSC818433), MRTX1133 (NSC 836407), abemaciclib (NSC 768073), palbociclib (NSC758247), venetoclax (NSC 766270), SY5609 (NSC837396), enzalutamide (NSC755605), and darolutamide (NSC825331), were obtained from the National Cancer Institute (NCI) Developmental Therapeutics Program Chemical Repository. The FDA-approved anticancer drug set is available from the NCI Developmental Therapeutics Program. […] The stock solutions were prepared in dimethyl sulfoxide (DMSO, Sigma-Aldrich, St. Louis, MO, cat. D2650) at 800-fold the tested concentration and stored at -70 degrees C prior to their use. All drugs and investigational agents were tested over a range starting from a high concentration at or near the clinical Cmax and decreasing in half-log increments. If the clinical Cmax for an agent had not been determined, the highest concentration tested was 10 microM.
Cell Culture. All cells were maintained in an incubator at 37 degrees C and 5% CO2 with 95% humidity. The PDC lines were cultured according to standard operating procedures established by the NCI PDMR (https://pdmr.cancer.gov/sops/default.htm). All PDCs were thawed and cultured in Matrigel-coated flasks prepared with a working solution of 1X Ham's F-12 nutrient mix, without supplementation (Invitrogen, Waltham, MA, cat. 11765054), 100 U/mL penicillin-streptomycin (Invitrogen, cat. 15140122), and 2.5% Matrigel (Corning Inc., Corning, NY, cat. 354248) for the first three passages. The 354836-022-R-J1-PDC, 475296-252-R-J1-PDC, and 997726-040-R-J2-PDC lines were cultured in 6A media, which includes advanced DMEM/F-12 (Thermo Fisher Scientific, cat. 12634028), 10 mM HEPES (Thermo Fisher Scientific, cat. 15630080), 1X GlutaMAX supplement (Thermo Fisher Scientific, cat. 35050061), 0.1 mg/mL primocin (InvivoGen, San Diego, CA, cat. ant-pm-2), 10% defined fetal bovine serum, heat inactivated (HyClone Laboratories Inc., Logan, UT, cat. SH30070.03HI), 50% L-WRN conditioned media (ATCC, cat. CRL-3276), 1.25 mM N-Acetyl-L-cysteine (Sigma-Aldrich, cat. A9165), 10 mM nicotinamide (Sigma-Aldrich, cat. N0636), 1X B-27 supplement (Thermo Fisher Scientific, cat. 17504044), 1X N-2 supplement (Thermo Fisher Scientific, cat. 17502048), and 10 microM Y-27632 dihydrochloride (Tocris Bioscience, Bristol, United Kingdom, cat. 1254). The 624824-186-R-J2-PDC line was cultured in 6C/Colon 1B media, which includes all 6A media components plus 50 ng/mL human EGF recombinant protein (Thermo Fisher Scientific, cat. PHG0311). […]

[1] = second compound 0.0316 µM, first compound 0.0316 µM
[2] = second compound 0.0316 µM, first compound 0.1 µM
[3] = second compound 0.0316 µM, first compound 0.316 µM
[4] = second compound 0.0316 µM, first compound 1 µM
[5] = second compound 0.0316 µM, first compound 3.16 µM
[6] = second compound 0.0316 µM, first compound 10 µM
[7] = second compound 0.1 µM, first compound 0.0316 µM
[8] = second compound 0.1 µM, first compound 0.1 µM
[9] = second compound 0.1 µM, first compound 0.316 µM
[10] = second compound 0.1 µM, first compound 1 µM
[11] = second compound 0.1 µM, first compound 3.16 µM
[12] = second compound 0.1 µM, first compound 10 µM
[13] = second compound 0.316 µM, first compound 0.0316 µM
[14] = second compound 0.316 µM, first compound 0.1 µM
[15] = second compound 0.316 µM, first compound 0.316 µM
[16] = second compound 0.316 µM, first compound 1 µM
[17] = second compound 0.316 µM, first compound 3.16 µM
[18] = second compound 0.316 µM, first compound 10 µM
[19] = second compound 1 µM, first compound 0.0316 µM
[20] = second compound 1 µM, first compound 0.1 µM
[21] = second compound 1 µM, first compound 0.316 µM
[22] = second compound 1 µM, first compound 1 µM
[23] = second compound 1 µM, first compound 3.16 µM
[24] = second compound 1 µM, first compound 10 µM
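Also: spheroids exposed to compounds for seven days.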
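For viability, T/C in this document: 100% = DMSO vehicle control viability.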

For `CNC(=O)c1ccc(N2C(=S)N(c3ccc(C#N)c(C(F)(F)F)c3)C(=O)C2(C)C)cc1F` + CC(Nc1ccc2c(c1)OCCn1cc(N3C(=O)OCC3C(F)F)nc1-2)C(N)=O, the IC50 (second compound 0.00316 µM) was > 10 µM, the IC50 (second compound 0.01 µM) was > 10 µM and the IC50 (second compound 0.0316 µM) was > 10 µM. The IC50 (second compound 0.1 µM) was > 10 µM, the IC50 (second compound 0.316 µM) was > 10 µM and the IC50 (second compound 1 µM) was 3.72 µM. For the same compound, the viability, T/C (second compound 0.00316 µM, first compound 0.0316 µM) was 99.8%, the viability, T/C (second compound 0.00316 µM, first compound 0.1 µM) was 87% and the viability, T/C (second compound 0.00316 µM, first compound 0.316 µM) was 89.7%. The viability, T/C (second compound 0.00316 µM, first compound 1 µM) was 101%, the viability, T/C (second compound 0.00316 µM, first compound 3.16 µM) was 99.3% and the viability, T/C (second compound 0.00316 µM, first compound 10 µM) was 88.2%. The viability, T/C (second compound 0.01 µM, first compound 0.0316 µM) was 103%, the viability, T/C (second compound 0.01 µM, first compound 0.1 µM) was 94.8% and the viability, T/C (second compound 0.01 µM, first compound 0.316 µM) was 97.6%. For the same compound, the viability, T/C (second compound 0.01 µM, first compound 1 µM) was 91.3%, the viability, T/C (second compound 0.01 µM, first compound 3.16 µM) was 101% and the viability, T/C (second compound 0.01 µM, first compound 10 µM) was 90%. It also gave a viability, T/C [1] of 93.3%, a viability, T/C [2] of 101% and a viability, T/C [3] of 102%. It also gave a viability, T/C [4] of 92.8%, a viability, T/C [5] of 97.5% and a viability, T/C [6] of 90.1%. For the same compound, the viability, T/C [7] was 97.7%, the viability, T/C [8] was 92% and the viability, T/C [9] was 91.9%. For the same compound, the viability, T/C [10] was 91.7%, the viability, T/C [11] was 87.5% and the viability, T/C [12] was 77.6%. It also gave a viability, T/C [13] of 82.7%, a viability, T/C [14] of 75.8% and a viability, T/C [15] of 79.7%. The viability, T/C [16] was 70.2%, the viability, T/C [17] was 62.2% and the viability, T/C [18] was 60.2%. It also gave a viability, T/C [19] of 50.2%, a viability, T/C [20] of 59.6% and a viability, T/C [21] of 53%. The viability, T/C [22] was 51.1%, the viability, T/C [23] was 51.8% and the viability, T/C [24] was 44.7%.

`CCCS(=O)(=O)Nc1ccc(F)c(C(=O)c2c[nH]c3ncc(-c4ccc(Cl)cc4)cc23)c1F` + CC(Nc1ncnc2nc[nH]c12)c1cc2cccc(Cl)c2c(=O)n1-c1ccccc1 gave an IC50 (second compound 0.0316 µM) of 8.61 µM, an IC50 (second compound 0.1 µM) of 6.79 µM and an IC50 (second compound 0.316 µM) of 6.52 µM. For the same compound, the IC50 (second compound 1 µM) was 7.03 µM, the IC50 (second compound 3.16 µM) was 6.39 µM and the IC50 (second compound 10 µM) was 4.69 µM. The viability, T/C [1] was 103%, the viability, T/C [2] was 103% and the viability, T/C [3] was 108%. For the same compound, the viability, T/C [4] was 105%, the viability, T/C [5] was 96.5% and the viability, T/C [6] was 43%. It also gave a viability, T/C [7] of 112%, a viability, T/C [8] of 103% and a viability, T/C [9] of 90.3%. For the same compound, the viability, T/C [10] was 90.9%, the viability, T/C [11] was 92.8% and the viability, T/C [12] was 28.1%. The viability, T/C [13] was 92.6%, the viability, T/C [14] was 96.5% and the viability, T/C [15] was 101%. The viability, T/C [16] was 104%, the viability, T/C [17] was 93.9% and the viability, T/C [18] was 23.8%. For the same compound, the viability, T/C [19] was 112%, the viability, T/C [20] was 99.6% and the viability, T/C [21] was 98.8%. It also gave a viability, T/C [22] of 116%, a viability, T/C [23] of 98.8% and a viability, T/C [24] of 27.8%. For the same compound, the viability, T/C (second compound 3.16 µM, first compound 0.0316 µM) was 107%, the viability, T/C (second compound 3.16 µM, first compound 0.1 µM) was 101% and the viability, T/C (second compound 3.16 µM, first compound 0.316 µM) was 118%. For the same compound, the viability, T/C (second compound 3.16 µM, first compound 1 µM) was 106%, the viability, T/C (second compound 3.16 µM, first compound 3.16 µM) was 90.1% and the viability, T/C (second compound 3.16 µM, first compound 10 µM) was 24.5%. It also gave a viability, T/C (second compound 10 µM, first compound 0.0316 µM) of 95%, a viability, T/C (second compound 10 µM, first compound 0.1 µM) of 101% and a viability, T/C (second compound 10 µM, first compound 0.316 µM) of 91.2%. The viability, T/C (second compound 10 µM, first compound 1 µM) was 83.8%, the viability, T/C (second compound 10 µM, first compound 3.16 µM) was 69.2% and the viability, T/C (second compound 10 µM, first compound 10 µM) was 16.6%.
